{"source": "patent US7317037B2", "about": "“Progesterone receptor modulators comprising pyrrole-oxindole derivatives and uses thereof” (Wyeth, priority 2004, dated 2008)", "key": {"[1]": {"tested_on": "menses induction", "test": "Cynomolgus monkey menses induction assay", "assay_type": "in vivo", "details": "5 mg/kg po", "protocol": "C. Cynomolgus Monkey […] Induction 1. Experimental Design The effects of administered compound(s) in either a single dose or a dose-response paradigm versus an appropriate control (vehicle alone) are determined. When a compound is tested at a single dose, a group of four animals will be used for the dose. In the dose response study, each experiment will involve up to 5 groups of animals (a control group and 4 groups of animals treated with varying doses of the compound). Experimental groups will contain 3-4 animals/group, since this sample size is commonly used in the literature and has been found appropriate based on our own experience. The animals are treated with test compounds once or twice daily for 4 days in the mid-luteal phase of the menstrual cycle to assess the efficacy of the compounds on the reproductive parameters menstruation. 2. Procedures Initially, animals are characterized in terms of their reproductive cyclicity by observing time of menstruation. Only those animals with two consecutive normal cycles are used to evaluate test compounds. […] will be determined by daily gross examination for vaginal bleeding. In each experiment, animals will be treated once or twice daily IV, IM, SC or PO with the test compound. Appropriate vehicles will be determined for each route of administration and will be specified through protocol amendments. […]"}, "[2]": {"tested_on": "rat uterine decidualization", "test": "Rat decidualization assay", "assay_type": "in vivo", "details": "po, read-out: ED50 in the rat decidual assay", "protocol": "B. Progestational and Antiprogestational Activity in Mature Ovariectomized Rats (Rat Decidualization Assay)\nThis assay is used to evaluate the effect of progestins and antiprogestins on rat uterine decidualization and compare the relative potencies of various test compounds.\nTest compounds are dissolved in 100% ethanol and mixed with corn oil (vehicle). Stock solutions of the test compounds in oil (Mazola™) are then prepared by heating (˜80° C.) the mixture to evaporate ethanol. Test compounds are subsequently diluted with 100% corn oil or 10% ethanol in corn oil prior to the treatment of animals. No difference in decidual response is found when these two vehicles are compared. […]\nApproximately 24 hr after the third injection, decidualization is induced in one of the uterine horns of anesthetized rats by scratching the antimesometrial luminal epithelium with a blunt 21 G needle. […] Approximately 24 hr following the final treatment, rats are sacrificed by […] and bodyweight measured. […]\nIn agonist mode, the increase in weight of the decidualized uterine horn is calculated by D-horn/C-horn and logarithmic transformation is used to maximize normality and homogeneity of variance. […] EC50 is calculated from the transformed value. […] IC50 is calculated from the retransformed value. […]"}, "[3]": {"test": "Cynomolgus monkey intravenous pharmacokinetics", "details": "in vivo, cynomolgus monkeys, 0.25 mg/kg i.v.", "from_the_text": "Therefore from the preceding data it is clear that the R6=fluorine group present in 5-(7-fluoro-3,3-dimethyl-2-oxo-2,3-dihydro-1H-indol-5-yl)-1-methyl-1H-pyrrole-2-carbonitrile dramatically improves the pharmacokinetic performance of the molecule. This improved pharmacokinetic performance translates in the cynomolgus menses induction assay to a dramatic improvement in activity."}}, "data": [{"compound": "Cn1c(C#N)ccc1-c1ccc2c(c1)C(C)(C)C(=O)N2", "note": "[5-(3,3-Dimethyl-2-oxo-2,3-dihydro-1H-indol-5-yl)-1-methyl-1H-pyrrole-2-carbonitrile, reference compound]", "values": [{"measurement": "induction of early onset of menses", "setting": "[1]", "result": "not active"}, {"measurement": "ED50", "setting": "[2]", "result": 0.2, "unit": "mg/kg"}, {"measurement": "AUC(0-inf)", "setting": "[3]; read-out: exposure (AUC0-∞)", "result": 343, "unit": "ng·h/mL"}, {"measurement": "half-life", "setting": "[3]; read-out: mean half life (t1/2) (converted)", "result": 2.1, "unit": "h"}]}]}
